The source of these data is patent publication US8329706B2, “Oxazolidinone derivatives” (Actelion Pharmaceuticals Ltd., priority 2009, dated 2012).

Each structure is given as a SMILES string.

Assay [1] concerns rat. The note with it: cited from earlier work.
For assay [2], the system named is rat. The note with it: rat model; cited from earlier work.
In assay [3] the test system is rat. The note with it: cited from earlier work. The source holds these as a separate data set.
For assay [4], the target named is T1, human orexin-1 receptor (Homo sapiens, UniProt O43613).
T1 construct: expressed in transfected cells; host or cells: CHO cells (G418 selection)
T1 sequence (O43613 1-425): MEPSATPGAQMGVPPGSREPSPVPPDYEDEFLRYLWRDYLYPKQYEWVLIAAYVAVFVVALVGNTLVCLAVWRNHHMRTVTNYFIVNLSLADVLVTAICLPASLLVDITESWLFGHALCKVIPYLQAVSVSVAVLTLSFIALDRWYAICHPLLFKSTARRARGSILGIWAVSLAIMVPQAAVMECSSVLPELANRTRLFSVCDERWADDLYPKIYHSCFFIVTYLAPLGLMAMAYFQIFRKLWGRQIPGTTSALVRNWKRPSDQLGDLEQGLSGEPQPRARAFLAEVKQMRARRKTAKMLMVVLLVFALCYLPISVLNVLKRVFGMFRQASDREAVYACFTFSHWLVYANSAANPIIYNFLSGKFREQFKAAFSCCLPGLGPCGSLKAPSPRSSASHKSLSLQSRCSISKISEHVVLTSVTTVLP
Put plainly: FLIPR intracellular calcium assay, orexin receptor antagonistic activity (OX1). Particulars: CHO cells expressing human orexin-1 receptor; agonist 3 nM orexin-A; normalized to on-plate reference; * geomean n = 5, *2 geomean n = 2. Type of assay: cell-based. Put shortly: (§1)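 CHO cells expressing human OX1 or OX2 receptor loaded with fluo-4 AM, then antagonist preincubated 10 min before 3 nM orexin-A. FLIPR peak calcium fluorescence compared with agonist-plus-vehicle response. IC50 normalized to an on-plate reference compound.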
A general note: A change in cytosolic calcium serves as a functional read-out for many receptors and channels.

The target of assay [5] is T2, human orexin-2 receptor (Homo sapiens, UniProt O43614).
T2 construct: expressed in transfected cells; host or cells: CHO cells (G418 selection)
T2 sequence (O43614 1-444): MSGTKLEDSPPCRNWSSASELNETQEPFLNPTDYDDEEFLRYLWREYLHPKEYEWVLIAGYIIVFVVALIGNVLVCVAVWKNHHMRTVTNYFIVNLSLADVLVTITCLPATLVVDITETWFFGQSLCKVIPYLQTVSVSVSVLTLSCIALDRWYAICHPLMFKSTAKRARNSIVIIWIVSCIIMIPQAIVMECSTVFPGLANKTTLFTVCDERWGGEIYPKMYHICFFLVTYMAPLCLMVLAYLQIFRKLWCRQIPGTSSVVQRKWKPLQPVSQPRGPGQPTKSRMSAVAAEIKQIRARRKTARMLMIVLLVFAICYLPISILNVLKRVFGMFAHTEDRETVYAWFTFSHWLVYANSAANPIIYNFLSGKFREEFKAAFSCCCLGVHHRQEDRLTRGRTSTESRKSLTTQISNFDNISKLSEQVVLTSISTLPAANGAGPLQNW
Nature of the assay: FLIPR intracellular calcium assay, orexin receptor antagonistic activity (OX2). The assay is classed as cell-based. Particulars: CHO cells expressing human orexin-2 receptor; agonist 3 nM orexin-A; normalized to on-plate reference; * geomean n = 5, *2 geomean n = 2. The method in brief:
as §1

In the case of `CNC(=O)[C@@H](c1ccccc1)N1CCc2cc(OC)c(OC)cc2[C@@H]1CCc1ccc(C(F)(F)F)cc1` [(2R)-2-{(1S)-6,7-dimethoxy-1-[2-(4-trifluoromethyl-phenyl)-ethyl]-3,4-dihydro-1H-isoquinolin-2-yl}-N-methyl-2-phenyl-acetamide], in assay [1], the “alertness (active wake and locomotion)” value is given as “decrease alertness”; the “time spent in REM and NREM sleep” value was “dose-dependently increase the time spent in both REM and NREM sleep”. The memory function entry in assay [2] was “enhance memory function”. Also, in assay [3], the “activity in model of post-traumatic stress disorder” value is given as “active”.

As usually defined, the IC50 is the midpoint of a concentration-inhibition curve. As for `COc1cccc(OC(C)C)c1C1OC(C)(C)C(=O)N1Cc1ccc(Oc2ccccc2)cc1` (stereo not drawn) [Example 96, 2-(2-Isopropoxy-6-methoxy-phenyl)-5,5-dimethyl-3-(4-phenoxy-benzyl)-oxazolidin-4-one], the IC50 turned out to be 10 nM in assay [4] and 120 nM in assay [5].

Regarding `CCOc1cccc(OC)c1C1OC(C)(C)C(=O)N1Cc1ccc(Oc2ccccc2)cc1` (stereo not drawn) [Example 97, 2-(2-Ethoxy-6-methoxy-phenyl)-5,5-dimethyl-3-(4-phenoxy-benzyl)-oxazolidin-4-one], the IC50 was found to be 25 nM in assay [4] and 62 nM in assay [5].

On to `COCCOc1cccc(OC)c1C1OC(C)(C)C(=O)N1Cc1ccc(Oc2ccccc2)cc1` (stereo not drawn) [Example 98, 2-[2-Methoxy-6-(2-methoxy-ethoxy)-phenyl]-5,5-dimethyl-3-(4-phenoxy-benzyl)-oxazolidin-4-one], for which the half-maximal inhibitory concentration (IC50) in assay [4] worked out at 345 nM; in assay [5], 366 nM.

Consider `COc1cccc(OCCCO)c1C1OC(C)(C)C(=O)N1Cc1ccc(Oc2ccccc2)cc1` (stereo not drawn) [Example 99, 2-[2-(3-Hydroxy-propoxy)-6-methoxy-phenyl]-5,5-dimethyl-3-(4-phenoxy-benzyl)-oxazolidin-4-one], for which the IC50 was found to be 80 nM in assay [4] and 150 nM in assay [5].
